Experimental data: patent publication US9101638B2, “Boronic acid derivatives and therapeutic uses thereof” (Rempex Pharmaceuticals, Inc., priority 2013, dated 2015)
pKi: −log10 of the molar value.

Key:
PAM1032/KPC-2 = assay: Biapenem potentiation in PAM1032/KPC-2 (MexAB-OprM overexpressed); assay type: cell-based, Pseudomonas aeruginosa; settings: BLI potency to decrease biapenem MIC 64-fold, 32 to 0.5 μg/ml; efflux proficient strain
Method: (§1) Efflux of BLIs from Pseudomonas aeruginosa by the MexAB-OprM efflux pump was also evaluated. […] Due to expression of KPC-2 both strains became resistant to biapenem. […] Potency of BLIs to potentiate biapenem in these strains was determined. […] The ratio of MPC64 values for each BLI in PAM1032/KPC-2 (efflux proficient) and PAM1154/KPC-2 (efflux deficient) was determined to generate the Efflux Index (EI).

EC1010 (CMY-6) [1] = assay type: cell-based
SHV-12 = SHV-12 (Klebsiella pneumoniae, UniProt P0AD64, E235K/G234S/L31Q); assay: Inhibition of nitrocefin cleavage by purified SHV-12; assay type: biochemical; settings: nitrocefin reporter substrate, purified enzyme; read-out: Ki (SHV-12, NCF)
Sequence of SHV-12 (P0AD64 22-286 L31Q/G234S/E235K): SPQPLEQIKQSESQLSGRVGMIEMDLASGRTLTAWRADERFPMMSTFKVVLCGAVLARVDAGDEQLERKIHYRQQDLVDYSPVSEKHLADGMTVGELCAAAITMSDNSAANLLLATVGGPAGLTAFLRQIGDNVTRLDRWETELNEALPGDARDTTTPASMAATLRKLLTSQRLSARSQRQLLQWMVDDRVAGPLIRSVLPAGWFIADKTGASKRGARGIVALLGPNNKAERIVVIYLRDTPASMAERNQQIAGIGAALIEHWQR
Method: (§2) Purified enzymes were mixed with various concentrations of inhibitors in reaction buffer and incubated for 10 min at room temperature. Nitrocefin was added and substrate cleavage profiles were recorded at 490 nm every 10 sec for 10 min.

ec308 (SHV-5) [2] = assay: Potentiation of tigemonam, strain ec308; assay type: cell-based; settings: minimum BLI concentration inhibiting growth with 4 μg/mL tigemonam
KP1005 (CTX-M-14) = assay: Potentiation of aztreonam, strain KP1005; assay type: cell-based
ECL1002 = assay: Potentiation of aztreonam, strain ECL1002; assay type: cell-based; settings: minimum BLI concentration inhibiting growth with 4 μg/mL aztreonam
ec302 (TEM-10) [3] = assay: Potentiation of tigemonam, strain ec302; assay type: cell-based
KP1004 (K-2) = assay: Potentiation of aztreonam, strain KP1004; assay type: cell-based; settings: for AZT MPC4 K-2 KP1004: minimum BLI concentration inhibiting growth with 4 μg/mL aztreonam
KP1009 (CTX-M-15) [4] = assay: Potentiation of aztreonam, strain KP1009; assay type: cell-based
ec302 (TEM-10) [5] = assay: Potentiation of aztreonam, strain ec302; assay type: cell-based
KP1009 (CTX-M-15) [6] = assay: Potentiation of tigemonam, strain KP1009; settings: minimum BLI concentration inhibiting growth with 4 μg/mL tigemonam
ec308 (SHV-5) [7] = assay: Potentiation of aztreonam, strain ec308; assay type: cell-based; settings: for AZT MPC4 SHV-5 ec308: minimum BLI concentration inhibiting growth with 4 μg/mL aztreonam
PAM1154/KPC-2 = assay: Biapenem potentiation in PAM1154/KPC-2 (MexAB-OprM lacking); assay type: cell-based, Pseudomonas aeruginosa; settings: BLI potency to decrease biapenem MIC 64-fold, 32 to 0.5 μg/ml; efflux deficient strain
Method: as §1

EC1010 (CMY-6) [8] = assay: Potentiation of aztreonam, strain EC1010; assay type: cell-based
KPC-2 = KPC-2 (Klebsiella pneumoniae, UniProt Q9F663); assay: Inhibition of nitrocefin cleavage by purified KPC-2; assay type: biochemical; settings: nitrocefin reporter substrate, purified enzyme; read-out: Ki (KPC-2, NCF)
Sequence of KPC-2 (Q9F663 25-293, looked up, species assumed): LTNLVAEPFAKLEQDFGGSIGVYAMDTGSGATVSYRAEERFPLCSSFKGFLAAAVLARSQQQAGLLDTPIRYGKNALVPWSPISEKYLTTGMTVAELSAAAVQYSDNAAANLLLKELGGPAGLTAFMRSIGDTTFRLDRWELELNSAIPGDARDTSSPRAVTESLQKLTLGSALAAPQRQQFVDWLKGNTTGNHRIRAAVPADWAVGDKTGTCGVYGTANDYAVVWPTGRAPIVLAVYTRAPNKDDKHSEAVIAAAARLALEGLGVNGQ
Method: as §2

Row | Compound | TIG MPC4 CMY-6 EC1010 (EC1010 (CMY-6) [1]) | TIG MPC4 SHV-5 ec308 (ec308 (SHV-5) [2]) | AZT MPC4 CTX-M-14 KP1005 (KP1005 (CTX-M-14)) | AZT MPC4 ECL1002 (ECL1002) | TIG MPC4 TEM-10 ec302 (ec302 (TEM-10) [3]) | AZT MPC4 K-2 KP1004 (KP1004 (K-2)) | AZT MPC4 CTX-M-15 KP1009 (KP1009 (CTX-M-15) [4]) | AZT MPC4 TEM-10 ec302 (ec302 (TEM-10) [5]) | TIG MPC4 CTX-M-15 KP1009 (KP1009 (CTX-M-15) [6]) | AZT MPC4 SHV-5 ec308 (ec308 (SHV-5) [7]) | AZT MPC4 CMY-6 EC1010 (EC1010 (CMY-6) [8]) | also measured
1 | Cn1nnnc1SCC(=O)N[C@H]1Cc2cccc(C(=O)O)c2OB1O [Compound 2, (R)-2-hydroxy-3-(2-(1-methyl-1H-tetrazol-5-ylthio)acetamido)-3,4-dihydro-2H-benzo[e][1,2]oxaborinine-8-carboxylic acid] | X (key: X = MIC of less than 1 μg/mL; Y = MIC of 1 μg/mL to 10 μg/mL; Z = MIC of greater than 10 μg/mL) | X (X = MIC of less than 1 μg/mL) | X (key: X = MIC of less than 1 μg/mL; Y = MIC of 1 μg/mL to 10 μg/mL; Z = MIC of greater than 10 μg/mL) | Y (Y = MIC of 1 μg/mL to 10 μg/mL) | Y (key: X = MIC of less than 1 μg/mL; Y = MIC of 1 μg/mL to 10 μg/mL; Z = MIC of greater than 10 μg/mL) | Y (Y = MIC of 1 μg/mL to 10 μg/mL) | Y (key: X = MIC of less than 1 μg/mL; Y = MIC of 1 μg/mL to 10 μg/mL; Z = MIC of greater than 10 μg/mL) | Y (key: X = MIC of less than 1 μg/mL; Y = MIC of 1 μg/mL to 10 μg/mL; Z = MIC of greater than 10 μg/mL) | Y (Y = MIC of 1 μg/mL to 10 μg/mL) | X (X = MIC of less than 1 μg/mL) | Y (key: X = MIC of less than 1 μg/mL; Y = MIC of 1 μg/mL to 10 μg/mL; Z = MIC of greater than 10 μg/mL) | PAM1032/KPC-2 Biapenem MPC64 (PAM1032/KPC-2): Z (Z Greater than 40); pKi (SHV-12): > 9.00; PAM11154/KPC-2 Biapenem MPC64 (PAM1154/KPC-2): Y (Y = 10 to 40)
2 | CN(C)C(=O)C(=O)N[C@H]1Cc2cccc(C(=O)O)c2OB1O [Compound 9, (R)-3-(2-(dimethylamino)-2-oxoacetamido)-2-hydroxy-3,4-dihydro-2H-benzo[e][1,2]oxaborinine-8-carboxylic acid] | Y (key: X = MIC of less than 1 μg/mL; Y = MIC of 1 μg/mL to 10 μg/mL; Z = MIC of greater than 10 μg/mL) | Y (Y = MIC of 1 μg/mL to 10 μg/mL) | Y (key: X = MIC of less than 1 μg/mL; Y = MIC of 1 μg/mL to 10 μg/mL; Z = MIC of greater than 10 μg/mL) | Y (Y = MIC of 1 μg/mL to 10 μg/mL) | Z (key: X = MIC of less than 1 μg/mL; Y = MIC of 1 μg/mL to 10 μg/mL; Z = MIC of greater than 10 μg/mL) | Y (Y = MIC of 1 μg/mL to 10 μg/mL) | Y (key: X = MIC of less than 1 μg/mL; Y = MIC of 1 μg/mL to 10 μg/mL; Z = MIC of greater than 10 μg/mL) | Y (key: X = MIC of less than 1 μg/mL; Y = MIC of 1 μg/mL to 10 μg/mL; Z = MIC of greater than 10 μg/mL) | Y (Y = MIC of 1 μg/mL to 10 μg/mL) | X (X = MIC of less than 1 μg/mL) | Y (key: X = MIC of less than 1 μg/mL; Y = MIC of 1 μg/mL to 10 μg/mL; Z = MIC of greater than 10 μg/mL) | pKi (KPC-2): < 8.00
3 | C[C@H]1[C@H](NC(=O)/C(=N\OC(C)(C)C(=O)O)c2csc(N)n2)C(=O)N1S(=O)(=O)O [Aztreonam, reference compound] | – | – | – | – | – | – | – | – | – | – | – | MIC (KP1005 (CTX-M-14); read-out: Aztreonam MIC): > 128 µg/mL; MIC (KP1004 (K-2); read-out: Aztreonam MIC): > 128 µg/mL; MIC (KP1009 (CTX-M-15) [4]; read-out: Aztreonam MIC): > 128 µg/mL; MIC (ec302 (TEM-10) [5]; read-out: Aztreonam MIC): 128 µg/mL; MIC (ec308 (SHV-5) [7]; read-out: Aztreonam MIC): > 128 µg/mL; MIC (EC1010 (CMY-6) [8]; read-out: Aztreonam MIC): > 128 µg/mL
